Laboratory results reported in patent US20230292743A1, “Method for increasing the lifespan and motility of animal sperm using an inhibitor of Slo3 potassium channel” (IMV TECHNOLOGIES, priority 2017, published 2023).

Tested on: mouse sperm
Assay: Ability of mouse sperm to fertilize oocytes after incubation in capacitation medium (in vitro fertilization, 2-cell embryos)
Assay type: cell-based
Conditions: 25 μM quinidine in M16-BSA medium, 12 hours incubation, vs control
Protocol: Mouse sperm was obtained by manual trituration of caudae epididymides from male and were allowed to swim in M2 medium (from Sigma) for 10 minutes. The M2 medium composition in g/L is as follows: CaCl2 0.25; MgSO4 (anhydrous) 0.1649; KCl 0.35635; K2HPO4 0.162; NaHCO3 0.35; NaCl 5.53193; Albumin, Bovine Fraction V 4.0; D-Glucose 1.0; HEPES (for 4-(2-HydroxyEthyl)-1-Piperazine EthaneSulfonic acid)×Na 5.42726; Pyruvic Acid×Na 0.0363; DL-Lactic Acid×Na 2.95). Sperm were then capacitated in M16 medium (from Sigma) with 2% fatty acid-free BSA (for Bovine Serum Albumin) (named “M16-BSA medium”) at 37° C. in a 5% v/v CO2 incubator for different times as specified. M16 medium is a commercial and commonly used medium for in vitro fertilization and culture of preimplantation stage embryos. Oocytes were collected from mature OF1 females, synchronized with 5 units of pregnant mare serum gonadotrophin (PMSG) and 5 units of human chorionic gonadotrophin (HCG). Cumulus were harvested directly from the ampulla and sperm were injected into the M16 droplets containing the cumulus. 1. The first test related to the ability of mouse sperm to fertilize oocytes when incubated prior fertilization in a capacitation medium containing clofilium with regard to a control medium, which is the same capacitation medium but without clofilium. The capacitation medium was M16-BSA medium. The control medium was the M16-BSA medium containing the sperm. It was compared to the same medium further including clofilium at a concentration of 5 μM (in the M16-BSA medium containing the sperm). Sperm was incubated in M16-BSA medium with or without clofilium and then added to M16 droplets containing the cumulus comprising the oocytes. Two-cell embryos were counted at 48 h post insemination (n=3). The number of oocytes reaching the two-cell stage were counted at 48 hours after fertilization. Two different concentrations of clofilium were tested: 0.2 μM of clofilium and 5 μM of clofilium (in the M16-BSA medium containing the sperm). The sperm incubation time prior fertilization was 12 hours. The test related to the ability of mouse sperm to fertilize oocytes, sperm being incubated prior fertilization in a medium containing quinidine with regard to a control medium, without quinidine. The control medium was the M16-BSA medium containing the sperm (“control”). It was compared to the same medium further including quinidine, at various concentrations 5 μM quinidine (“5 μM quinidine”), 10 μM quinidine (“10 μM quinidine”), 25 μM quinidine (“25 μM quinidine”) and 100 μM quinidine (“100 μM quinidine”).

In the case of `C=C[C@H]1CN2CC[C@H]1C[C@@H]2[C@@H](O)c1ccnc2ccc(OC)cc12` [quinidine, (9S)-6′-methoxycinchonan-9-ol], the “percentage of 2-cell embryos vs mature oocytes at 24 h post fertilization (sperm lifespan)” value is reported as “better lifespan than the non-treated”.
